Measured values as given in patent publication EP2371816A1, “Aminocyclohexenone, their preparation and use as medicament against oxidative stress” (ABIOGEN PHARMA S.p.A., priority 2010, dated 2011).

Assays:
[1] = TEAC method (Trolox Equivalent Antioxidant Capacity Assay); conditions: ratio of gradient to gradient of reference (trolox); 37 °C, 650 nm, pH 4.5
Text: This assay is used to measure the total antioxidant activity of pure substances, biological fluids and plant compounds and is based on the reaction of antioxidants with the cation radical ABTS^˙+ (2,2'-azinobis(3-ethylbenzothiazolin-6-sulphonate)). This cation radical is metastable and has to be generated just before the experiment by reacting ABTS with hydrogen peroxide in the presence of HRP.
This radical can be reduced, with consequent loss of absorbance, by an antioxidant whose scavenging capacity can be measured spectrophotometrically at 650 nm. The test is carried out at 37 °C and the results are obtained from a comparison with Trolox (a synthetic antioxidant and hydrophilic analogue of vitamin E).
The ABTS solution S1 was prepared as follows: • 20 mg of ABTS were added to 50 mM of citric acid buffer (40 ml) at pH=4.5 and to the resulting solution there was added an aqueous solution of HRP (4.4 mg, 400 µl) and an aqueous solution of H2O2 (10 µl of a 30% solution diluted with 16.3 ml of water).
For each of the compounds (2), (6) and (7), as synthesized above, there was prepared a 600 µM solution in water, methanol or DMSO according to its solubility, as well as a Trolox solution as reference.
Each solution was diluted to produce 6 solutions each at a concentration between 25 µM and 300 µM. From each of the diluted and divided solutions, there were withdrawn 20 µl to which 200 µl of solution S1 were then added.
The decrease in absorbance of each solution thus obtained was monitored at 650 nm until a stable value was reached (about 90 minutes).
For each set of 6 solutions and for the reference trolox solution, the absorption was given in graph form as a function of the amount of compound (nmol) in the solution. The gradient of the straight line obtained by linear interpolation was determined according to the least squares method. The TEAC value of each compound of the invention is given in the table below and is expressed as the ratio between the gradient of the resulting straight line and the gradient of the reference (trolox) straight line.

[2] = mouse, in vivo
Description: The ability of the compounds of the invention to penetrate the brain was investigated by measuring their brain/plasma (B/P) concentration ratio in mice following intraperitoneal administration.
Female CD-1 mice were used (n=3 for each time period) and received the compounds of the invention by intraperitoneal administration, in 25 mg/kg doses in a 0.5% NaHCO3 buffer (pH 8.3). At predefined intervals following said administration, i.e. 5, 15, 30 and 60 minutes, the mice were killed and both plasma and total brain tissue were collected.
Specifically, after anaesthesia with ether, the animals were bled by blood withdrawal from the abdominal aorta then immediately decapitated. The blood samples were collected into plasma separator tubes containing Li-Heparin as anticoagulant and centrifuged. The resulting plasma was then stored at -20 °C. The brain was rapidly removed from the cranium and weighed, subsequently frozen and stored at -20 °C before treatment by homogenization and HPLC analysis.
The plasma was thawed and mixed with an equal volume of the extraction solution. This extraction solution was a mixture of aqueous and organic solvents whose composition had been previously determined by HPLC undertaken for each analyte.
1 ml of solution was then extracted by adding 20 µl of 70% HClO4 then centrifuged at 15,500g for 5 minutes and injected into the HPLC.
Each brain was thawed and homogenized with the extraction solution to provide a final composition of 4 ml/1g of tissue by means of an Ultra-Turrax blender and sonicated for 5 minutes. After centrifugation of the homogenate at 15,500g for 5 minutes, the resulting solution was treated with HClO4, as indicated for the plasma.
Specific chromatographic conditions had been developed for each analyte, the calibration curve being constructed for plasma and brain homogenate.

[3] = test system: cerebral oxidative stress induced in mice by doxorubicin; assay: In vivo assay of cerebral oxidative stress induced in mice by doxorubicin; conditions: for Brain/BWi / CAT/pr / GPX/pr / GSH/pr / GST/pr / Prot. Hmg / Prot. Ox/pr / SOD/pr: % variation relative to the vehicle, 50 mg/kg IP x3 days (D = doxorubicin alone); for Brain/BWi / CAT/pr / GPX/pr / GSH/pr / GST/pr / Prot. Hmg / Prot. Ox/pr / SOD/pr / Mean % variation relative to the vehicle: healthy animals; for Mean % variation relative to the vehicle: 50 mg/kg IP days 0, 1 and 2, mean over all parameters, approximate safety index (D = doxorubicin alone)
Description: The assay was carried out on compounds (1) and (3)-(6) and on edaravone (E) as comparative compound.
10 mice were used for each treatment group. For each compound 50 mg/kg were administered intraperitoneally (IP) for three consecutive days (day 0, 1 and 2); half the animals (5) also received IP 16.7 mg/kg of doxorubicin immediately after the first treatment (day 0). On the day after the last administration (day 3) the animals were killed by neck dislocation and the brains were removed, weighed and frozen in liquid nitrogen.
For the analyses of oxidative stress, 100 mg/ml of brain homogenate was prepared in Hebe buffer (pH 7.4 EDTA/HEPES^(**)) containing a mixture of enzyme inhibitors (Leupeptin, Pepstatin, Aprotinin, BHA). • ^(*) Hypotonic Extraction Buffer • ^(**) 4-2-hydroxyethyl-1-piperazinyl-ethanesulphonic acid
The evaluation parameters were: • BrW/BWi: ratio between final brain weight and initial body weight (day 0); • Prot. Hmg: total proteins in the homogenate (BCA method, i.e. bicinchoninic acid); • Prot. Ox: oxidized proteins in the Hmg by means of a colorimetric method using […] (DNPH); • GSH: reduced glutathione in the supernatant (sn) of the Hmg, obtained after precipitation with metaphosphoric acid (MPA), by means of a colorimetric method using […] (DTNB); • CAT: catalase in the Hmg by a colorimetric method using potassium dichromate; • SOD: superoxide dismutase by a colorimetric method using SOD Reagent (xanthine, EDTA, nitroblue tetrazole, Na2CO3, BSA, i.e. bovine serum albumin); • GST: glutathione S-transferase in the supernatant by a colorimetric method using chlorodinitrobenzene (CDNB) and GSH; and • GPx: glutathione peroxidase in the supernatant after addition of GSH and tert butyl hydroperoxide (t-BuOOH), heating and precipitation with MPA; followed by GSH method with DTNB.
All the parameters, with the exclusion of Brain/BWi and Prot. Hmg, were normalized for total Hmg proteins (Table 3). The D value standard deviations and the % incidence relative to V are given in italics.
The mean % effect, on all the parameters simultaneously, of the triple treatment in the healthy animals, as mean percentage variation relative to the vehicle (table 4). This value is useful as an approximate safety index of the oxidative state of the brain, i.e. the capacity of the compounds of the invention not to alter cerebral homeostasis in healthy animals.
The effect of the tested compounds on the "oxidized" animals was given as % inhibition relative to the percentage variation due to doxorubicin alone. The effect of the compounds on the oxidized animals can be expressed both as a function of the values of the vehicle (healthy, vehicle only) and as a function of the value of its own control (healthy, compound only): • Vehicle: percentage [(Compound+D)/V]x100/[(V+D)/V]x100 • Its own: percentage [(Compound+D)/Compound]x100/[(V+D)/V]x100

[4] = Acute toxicity study, intraperitoneal single dose (OECD guideline no. 420); format: in vivo; conditions: result in words, with reference to Example 13
Description: This study was carried out with the purpose of investigating the toxicity of a single dose of the listed compounds administered to ICR (CD-1) female mice. According to the current OECD guideline no.
The mice used were all female and were treated by intraperitoneal injection administration. The animals were observed individually and regularly for the first 4 hours and within 24 hours after administration, and then twice a day for the whole observation period. As soon as the animals were stabilized, observations at the weekend were undertaken once only during the day.
The evaluated parameters included the survival, body weight development, variations in skin and fur, changes in ocular, conjunctival and buccal mucous membranes, changes in activities of the respiratory, circulatory, autonomous and central nervous systems, changes in somatomotor activity and in behaviour.
Any appearance of tremors, convulsions, salivation, diarrhea, lethargy, drowsiness and coma were attentively and regularly monitored. At the end of the observation period, a post-mortem was carried out on all the animals.

[5] = pH at the semi-neutralization point of titration (pKa); format: physicochemical; conditions: titration with 0.1 N NaOH or HCl; for pKa: read-out: Acid dissociation constant: pKa
Description: The following equipment was used during the implementation of all the examples: • for melting point determination a Buchi B-540 instrument was used; • for pH determination at the semi-neutralization point of titration (pKa) a Mettler Toledo DL-50 instrument was used with a 0.1 N xNaOH or HCl solution; • the ^1H-NMR spectra were recorded at 300 MHz and the ^13C-NMR spectra were recorded at 75 MHz using a Varian Unity 300 instrument; • spectrophotometric measurements were carried out using a Lambda Perkin Elmer 15 UV/Vis spectrophotometer for the DPPH assay and a Wallac Victor 1420 multilabel counter spectrophotometer.

[6] = % inhibition relative to variation due to doxorubicin alone, oxidized animals, as function of its own control
[7] = % inhibition relative to variation due to doxorubicin alone, oxidized animals, as function of vehicle

Compound	TEAC [1]	bioavailability at the target site / crossing of the blood-brain barrier [2]	Brain/BWi [3] [%]	CAT/pr [3] [%]	GPX/pr [3] [%]	GSH/pr [3] [%]	GST/pr [3] [%]	Prot. Hmg [3] [%]	Prot. Ox/pr [3] [%]	SOD/pr [3] [%]	Mean % variation relative to the vehicle [3] [%]	toxicity evaluation in vivo (tolerability) [4]	pKa [5]	further results
O=C1C=C(NN2CCCCC2)CC(c2ccccc2)C1 (stereo not drawn) [(2), 5-phenyl-3-(piperidin-1-ylamino)cyclohex-2-enone]	1.67	–	–	–	–	–	–	–	–	–	–	–	–	–
CC1(C)CC(=O)C=C(N(O)Cc2cccnc2)C1 [(4), 3-(hydroxy(pyridin-3-ylmethyl)amino)-5,5-dimethylcyclohex-2-enone]	–	particularly bioavailable, as well as able to cross the blood-brain barrier in effective amounts	-0.1	-9.3	0.1	-0.2	0.5	1.2	-10.3	0.0	0.0	well tolerated	–	Brain/BWi its own [3, 6]: 56.5%; CAT/pr its own [3, 6]: -43.2%; GPX/pr its own [3, 6]: -6.1%; GSH/pr its own [3, 6]: 35.2%; GST/pr its own [3, 6]: -34.1%; Prot. Hmg its own [3, 6]: -38.6%; Prot. Ox/pr its own [3, 6]: 57.6%; SOD/pr its own [3, 6]: 73.4%; Brain/BWi vehicle [3, 7]: 79.7%; CAT/pr vehicle [3, 7]: 9.1%; GPX/pr vehicle [3, 7]: -8.1%; GSH/pr vehicle [3, 7]: 39.2%; GST/pr vehicle [3, 7]: -45.1%; Prot. Hmg vehicle [3, 7]: 1.2%; Prot. Ox/pr vehicle [3, 7]: -106.4%; SOD/pr vehicle [3, 7]: 73.4%; Acid dissociation constants: pKa1 [5]: 2.70; Acid dissociation constants: pKa2 [5]: 6.47
CC1(C)CC(=O)C=C(N(O)Cc2ccccn2)C1 [(5), 3-(hydroxy(pyridin-2-ylmethyl)amino)-5,5-dimethylcyclohex-2-enone]	–	particularly bioavailable, as well as able to cross the blood-brain barrier in effective amounts	-3.3	-6.2	1.5	-0.9	3.1	0.7	-5.5	-2.3	-0.4	well tolerated	4.2	–
CC1(C)CC(=O)C=C(NN2CCOCC2)C1 [(7), 5,5-dimethyl-3-(morpholinoamino)cyclohex-2-enone]	0.8	particularly bioavailable, as well as able to cross the blood-brain barrier in effective amounts	–	–	–	–	–	–	–	–	–	well tolerated	2.94	–
COc1cccc2c1C(=O)c1c(O)c3c(c(O)c1C2=O)C[C@@](O)(C(=O)CO)C[C@@H]3O[C@H]1C[C@H](N)[C@H](O)[C@H](C)O1 [D, doxorubicin, reference compound]	–	–	–	-13.2	-9.9	-12.5	-9.1	8.3	17.2	-14.3	-11.4	–	–	Brain/BWi ([3]; 50 mg/kg): -6.9%; Brain/BWi ([3]; listed as Doxo, 50 mg/kg): 6.9%
O=C1O[C@H]([C@@H](O)CO)C(O)=C1O [vitamin C, reference compound]	0.9	–	–	–	–	–	–	–	–	–	–	–	–	–
